Experimental data from patent US8889874B2, “Imidazolone-chalcone derivatives as potential anticancer agent and process for the preparation thereof” (Council of Scientific and Industrial Research, priority 2010, dated 2014).
Like-named read-outs stand apart in the source and are kept apart here.

Experiments:
Test in all cases: NCI anticancer screen, SRB assay, 48 h
Type in all cases: cell-based, human
[1] = test system: 786-0 (renal)
Method: (§1) Some of biological activity studies were carried out at the National Cancer Institute (NCI), Maryland, USA.
(§2) The compounds were evaluated for anticancer activity against fifty three human cancer cells derived from nine cancer types (leukemia cell line, non-small-cell lung cell line, colon cell line, CNS cell line, melanoma cell line, ovarian cell line, prostate cell line, and breast cancer cell line) as shown in Table 1. For each compound, dose response curves for each cell line were measured at a minimum of five concentrations at 10 fold dilutions. A protocol of 48 h continuous drug exposure was used and a sulforhodamine B (SRB) protein assay was used to estimate cell viability or growth.

[2] = test system: A549/ATCC (non-small cell lung)
Method: as §1, §2

[3] = test system: ACHN (renal)
Method: as §1, §2

[4] = test system: BT-549 (breast)
Method: as §1, §2

[5] = test system: CAKI-1 (renal); conditions: for GI50: Homo sapiens
Method: as §1, §2

[6] = test system: COLO 205 (colon); conditions: for GI50: COLO 205
Method: as §1, §2

[7] = test system: EKVX (non-small cell lung); conditions: for GI50: Homo sapiens
Method: as §1, §2

[8] = test system: HT29 (colon)
Method: as §1, §2

[9] = test system: KM12 (colon)
Method: as §1, §2

[10] = test system: LOX IMVI (melanoma)
Method: as §1, §2

[11] = test system: M14 (melanoma)
Method: as §1, §2

[12] = test system: MALME-3M (melanoma)
Method: as §1, §2

[13] = test system: MCF7 (breast)
Method: as §1, §2

[14] = test system: NCI-H226 (non-small cell lung); conditions: Homo sapiens
Method: as §1, §2

[15] = test system: NCI-H322M (non-small cell lung)
Method: as §1, §2

[16] = test system: NCI-H522 (non-small cell lung)
Method: as §1, §2

[17] = test system: NCI/ADR-RES (ovarian)
Method: as §1, §2

[18] = test system: OVCAR-3 (ovarian)
Method: as §1, §2

[19] = test system: OVCAR-5 (ovarian)
Method: as §1, §2

[20] = test system: OVCAR-8 (ovarian)
Method: as §1, §2

[21] = test system: RPMI-8226 (leukemia cell line)
Method: as §1, §2

[22] = test system: RXF 393 (renal)
Method: as §1, §2

[23] = test system: SF-268 (CNS)
Method: as §1, §2

[24] = test system: SF-295 (CNS)
Method: as §1, §2

[25] = test system: SF-539 (CNS)
Method: as §1, §2

[26] = test system: SK-MEL-2 (melanoma)
Method: as §1, §2

[27] = test system: SK-MEL-5 (melanoma)
Method: as §1, §2

[28] = test system: SK-OV-3 (ovarian)
Method: as §1, §2

[29] = test system: SN12C (renal); conditions: for GI50: SN12C
Method: as §1, §2

[30] = test system: SNB-19 (CNS)
Method: as §1, §2

[31] = test system: SW-620 (colon)
Method: as §1, §2

[32] = test system: TK-10 (renal)
Method: as §1, §2

[33] = test system: U251 (CNS)
Method: as §1, §2

[34] = test system: UACC-257 (melanoma)
Method: as §1, §2

[35] = test system: UACC-62 (melanoma)
Method: as §1, §2

[36] = Homo sapiens, 48 h exposure, SRB, read-out: GI50
[37] = Homo sapiens, read-out: pGI50 (-log of molar concentration causing 50% inhibition of net cell growth) (converted)
[38] = 48 h exposure, SRB, read-out: GI50
[39] = read-out: pGI50 (-log of molar concentration causing 50% inhibition of net cell growth) (converted)

O=C(/C=C/c1cccc(O)c1)c1cccc(-n2cc(-c3ccc(Cl)cc3)[nH]c2=O)c1 [4f, 4-(4-chlorophenyl)-1-3-[(E)-3-(3-hydroxyphenyl)-2-propenoyl]phenyl-2,3-dihydro-1H-2-imidazolone]
GI50 [1, 36]: 1570 nM | GI50 [1, 37]: 1580 nM | GI50 [2, 36]: 3550 nM | GI50 [2, 37]: 3550 nM | GI50 [3, 36]: 1840 nM | GI50 [3, 37]: 1820 nM | GI50 [4, 36]: 1450 nM | GI50 [4, 37]: 1450 nM | GI50 [5, 38]: 1720 nM | GI50 [5, 39]: 1740 nM | GI50 ([6]; Homo sapiens, COLO205, read-out: pGI50 (-log of molar concentration causing 50% inhibition of net cell growth) (converted)): 2290 nM | GI50 [6, 36]: 2290 nM | GI50 [7, 38]: 2400 nM | GI50 [7, 39]: 2400 nM | GI50 ([8]; Homo sapiens, HT-29, 48 h exposure, SRB, read-out: GI50): 1900 nM | GI50 ([8]; Homo sapiens, HT-29, read-out: pGI50 (-log of molar concentration causing 50% inhibition of net cell growth) (converted)): 1910 nM | GI50 [9, 36]: 1340 nM | GI50 [9, 37]: 1350 nM | GI50 [10, 36]: 1570 nM | GI50 [10, 37]: 1580 nM | GI50 [11, 36]: 2010 nM | GI50 [11, 37]: 2000 nM | GI50 ([12]; Homo sapiens, Malme-3M, read-out: pGI50 (-log of molar concentration causing 50% inhibition of net cell growth) (converted)): 1820 nM | GI50 ([12]; Homo sapiens, MALME-3M, 48 h exposure, SRB, read-out: GI50): 1830 nM | GI50 [13, 36]: 1270 nM | GI50 [13, 37]: 1290 nM | GI50 [14, 38]: 2310 nM | GI50 [14, 39]: 2290 nM | GI50 [15, 36]: 2520 nM | GI50 [15, 37]: 2510 nM | GI50 [16, 36]: 1650 nM | GI50 [16, 37]: 1660 nM | GI50 ([17]; Homo sapiens, NCI/ADR-RES, NCl/ADR-RES, 48 h exposure, SRB, read-out: GI50): 2200 nM | GI50 ([17]; Homo sapiens, NCI/ADR-RES, read-out: pGI50 (-log of molar concentration causing 50% inhibition of net cell growth) (converted)): 2190 nM | GI50 [18, 36]: 1560 nM | GI50 [18, 37]: 1550 nM | GI50 [19, 36]: 2190 nM | GI50 [19, 37]: 2190 nM | GI50 [20, 36]: 990 nM | GI50 [20, 37]: 1000 nM | GI50 [21, 36]: 1550 nM | GI50 [21, 37]: 1550 nM | GI50 ([22]; Homo sapiens, RXF 393, 48 h exposure, SRB, read-out: GI50): 1510 nM | GI50 ([22]; Homo sapiens, RXF-393, read-out: pGI50 (-log of molar concentration causing 50% inhibition of net cell growth) (converted)): 1510 nM | GI50 [23, 36]: 1780 nM | GI50 [23, 37]: 1780 nM | GI50 [24, 36]: 1790 nM | GI50 [24, 37]: 1780 nM | GI50 [25, 36]: 1680 nM | GI50 [25, 37]: 1700 nM | GI50 [26, 36]: 2070 nM | GI50 [26, 37]: 2090 nM | GI50 [27, 36]: 1530 nM | GI50 [27, 37]: 1510 nM | GI50 [28, 36]: 4210 nM | GI50 [28, 37]: 4170 nM | GI50 ([29]; Homo sapiens, SN 12C, read-out: pGI50 (-log of molar concentration causing 50% inhibition of net cell growth) (converted)): 1950 nM | GI50 [29, 36]: 1950 nM | GI50 [30, 36]: 1920 nM | GI50 [30, 37]: 1910 nM | GI50 [31, 36]: 1620 nM | GI50 [31, 37]: 1620 nM | GI50 [32, 36]: 2830 nM | GI50 [32, 37]: 2820 nM | GI50 ([33]; Homo sapiens, U-251, 48 h exposure, SRB, read-out: GI50): 580 nM | GI50 ([33]; Homo sapiens, U-251, read-out: pGI50 (-log of molar concentration causing 50% inhibition of net cell growth) (converted)): 575 nM | GI50 [34, 36]: 4070 nM | GI50 [34, 37]: 4070 nM | GI50 [35, 36]: 1850 nM | GI50 [35, 37]: 1860 nM

COc1cc(/C=C/C(=O)c2cccc(-n3cc(-c4ccc(Cl)cc4)[nH]c3=O)c2)cc(OC)c1OC [5f, 4-(4-chlorophenyl)-1-3-[(E)-3-(3,4,5-trimethoxyphenyl)-2-propenoyl]phenyl-2,3-dihydro-1H-2-imidazolone]
pGI50 (-log of molar concentration causing 50% inhibition of net cell growth) [1]: 5.67 | GI50 [1, 38]: 2140 nM | pGI50 (-log of molar concentration causing 50% inhibition of net cell growth) [2]: 4.07 | GI50 [2, 38]: 85200 nM | pGI50 (-log of molar concentration causing 50% inhibition of net cell growth) [3]: 5.14 | GI50 [3, 38]: 7170 nM | pGI50 (-log of molar concentration causing 50% inhibition of net cell growth) [4]: 4.91 | GI50 [4, 38]: 12300 nM | pGI50 (-log of molar concentration causing 50% inhibition of net cell growth) [5]: 4.81 | pGI50 (-log of molar concentration causing 50% inhibition of net cell growth) ([6]; COLO205): 5.13 | GI50 [6, 38]: 7380 nM | pGI50 (-log of molar concentration causing 50% inhibition of net cell growth) [7]: 4.62 | pGI50 (-log of molar concentration causing 50% inhibition of net cell growth) [8]: 5.70 | GI50 [8, 38]: 2000 nM | pGI50 (-log of molar concentration causing 50% inhibition of net cell growth) [9]: 5.26 | GI50 [9, 38]: 5450 nM | pGI50 (-log of molar concentration causing 50% inhibition of net cell growth) [10]: 5.76 | GI50 [10, 38]: 1720 nM | pGI50 (-log of molar concentration causing 50% inhibition of net cell growth) [11]: 5.36 | GI50 [11, 38]: 4360 nM | pGI50 (-log of molar concentration causing 50% inhibition of net cell growth) ([12]; MALME-3M): 4.74 | GI50 ([12]; MALME-3M, 48 h exposure, SRB, read-out: GI50): 18100 nM | pGI50 (-log of molar concentration causing 50% inhibition of net cell growth) [13]: 5.76 | GI50 [13, 38]: 1740 nM | pGI50 (-log of molar concentration causing 50% inhibition of net cell growth) [15]: 4.89 | GI50 [15, 38]: 12900 nM | pGI50 (-log of molar concentration causing 50% inhibition of net cell growth) [16]: 5.39 | GI50 [16, 38]: 4100 nM | pGI50 (-log of molar concentration causing 50% inhibition of net cell growth) ([17]; NCI/ADR-RES): 5.63 | GI50 ([17]; NCl/ADR-RES, 48 h exposure, SRB, read-out: GI50): 2360 nM | pGI50 (-log of molar concentration causing 50% inhibition of net cell growth) [18]: 5.61 | GI50 [18, 38]: 2400 nM | pGI50 (-log of molar concentration causing 50% inhibition of net cell growth) [19]: 5.51 | GI50 [19, 38]: 3110 nM | pGI50 (-log of molar concentration causing 50% inhibition of net cell growth) [20]: 5.41 | GI50 [20, 38]: 3850 nM | pGI50 (-log of molar concentration causing 50% inhibition of net cell growth) [21]: 5.41 | GI50 [21, 38]: 3920 nM | GI50 ([22]; RXF 393, 48 h exposure, SRB, read-out: GI50): 3220 nM | pGI50 (-log of molar concentration causing 50% inhibition of net cell growth) ([22]; RXF-393): 5.49 | pGI50 (-log of molar concentration causing 50% inhibition of net cell growth) [23]: 5.29 | GI50 [23, 38]: 5070 nM | pGI50 (-log of molar concentration causing 50% inhibition of net cell growth) [24]: 4.61 | GI50 [24, 38]: 24300 nM | pGI50 (-log of molar concentration causing 50% inhibition of net cell growth) [25]: 5.46 | GI50 [25, 38]: 3490 nM | pGI50 (-log of molar concentration causing 50% inhibition of net cell growth) [26]: 5.46 | GI50 [26, 38]: 3440 nM | pGI50 (-log of molar concentration causing 50% inhibition of net cell growth) [27]: 5.06 | GI50 [27, 38]: 8700 nM | pGI50 (-log of molar concentration causing 50% inhibition of net cell growth) [28]: 4.50 | GI50 [28, 38]: 31400 nM | pGI50 (-log of molar concentration causing 50% inhibition of net cell growth) ([29]; SN 12C): 5.29 | GI50 [29, 38]: 5140 nM | pGI50 (-log of molar concentration causing 50% inhibition of net cell growth) [30]: 4.79 | GI50 [30, 38]: 16100 nM | pGI50 (-log of molar concentration causing 50% inhibition of net cell growth) [31]: 5.76 | GI50 [31, 38]: 1750 nM | pGI50 (-log of molar concentration causing 50% inhibition of net cell growth) [32]: 5.19 | GI50 [32, 38]: 6460 nM | pGI50 (-log of molar concentration causing 50% inhibition of net cell growth) [33]: 5.67 | GI50 [33, 38]: 2120 nM | pGI50 (-log of molar concentration causing 50% inhibition of net cell growth) [34]: 4.76 | GI50 [34, 38]: 17400 nM | pGI50 (-log of molar concentration causing 50% inhibition of net cell growth) [35]: 5.05 | GI50 [35, 38]: 8880 nM
